Measured values reported in patent publication EP0908457B1, “3-(1,2-benzisothiazol- and isoxazol-5-Y1)-2,4(1H,3H)-pyrimidinedione or thione and 3-(1,2-benzisothiazol- and isoxazol-5-y1)-4(3H)-pyrimidinone or thione herbicidal agents” (BASF AKTIENGESELLSCHAFT, priority 1997, dated 1999).

Legend:
[1] = tested on: Oryza sativa, (L.) Tebonnet; assay: Rice tolerance to post-transplant applications under flooded paddy conditions (Example 187), ORYSAT (Rice, Tebonnet); for herbicidal effect rating ORYSAT: meaning of each grade not given here
[2] = tested on: Echinochloa oryzoides (Ard.) Fritsch.; assay: Preemergence weed control under flooded paddy conditions, ECHORC (Watergrass (Calif.)); assay type: in vivo; conditions: preemergence, flooded paddy; for herbicidal effect rating, ECHORC: meaning of each grade not given here
Cyperus iria = assay: Preemergence weed control under flooded paddy conditions, CYPIR (Rice Flatsedge); assay type: in vivo; conditions: preemergence, flooded paddy; for herbicidal effect rating, CYPIR: meaning of each grade not given here
[3] = tested on: Cyperus serotinus, Rottb.; assay: Preemergence weed control under flooded paddy conditions, CYPSE (Flatsedge); assay type: in vivo; conditions: preemergence; for herbicidal effect rating, CYPSE: meaning of each grade not given here
[4] = tested on: Monochoria vaginalis, Presl.; assay: Preemergence weed control under flooded paddy conditions, MOOVA (Monochoria); assay type: in vivo; conditions: preemergence, flooded paddy; for herbicidal effect rating, MOOVA: meaning of each grade not given here
Sagittaria pygmaea, L. = assay: Preemergence weed control under flooded paddy conditions, SAGPY (Arrowhead (Pygmaea)); assay type: in vivo; conditions: preemergence, flooded paddy; for herbicidal effect rating, SAGPY: meaning of each grade not given here
[5] = 0.0313 kg/ha, rated three to four weeks after treatment
[6] = 0.0625 kg/ha, rated three to four weeks after treatment
[7] = 0.1250 kg/ha, rated three to four weeks after treatment
[8] = 0.2500 kg/ha, rated three to four weeks after treatment
[9] = Rate 0.0320 kg/ha, rated three to four weeks after treatment
[10] = Rate 0.0620 kg/ha, rated three to four weeks after treatment
[11] = Rate 0.1250 kg/ha, rated three to four weeks after treatment
[12] = Rate 0.2500 kg/ha, rated three to four weeks after treatment
[13] = 0.0320 kg/ha, rated three to four weeks after treatment
[14] = 0.0620 kg/ha, rated three to four weeks after treatment
[15] = Rate 0.0320 kg/ha, rated 3-4 weeks after treatment
[16] = Rate 0.0620 kg/ha, rated 3-4 weeks after treatment
[17] = Rate 0.1250 kg/ha, rated 3-4 weeks after treatment
[18] = Rate 0.2500 kg/ha, rated 3-4 weeks after treatment

For `Cc1ccc(OCC(=O)OCCN(C)C)c(-c2nsc3ccc(-n4c(=O)cc(C(F)(F)F)n(C)c4=O)cc23)c1` [Example 70, 2-(Dimethylamino)ethyl {{2-{5-[3,6-dihydro-3-methyl-2,6-dioxo-4-(trifluoromethyl)-1(2H)-pyrimidinyl]-1,2-benzisothiazol-3-yl}-p-tolyl}oxy}acetate], the “herbicidal effect rating, ORYSAT (rice tolerance)” value (“herbicidal effect rating, ORYSAT” below) [1, 5] was 3.0, the “herbicidal effect rating, ORYSAT” value [1, 6] was 4.5 and the “herbicidal effect rating, ORYSAT” value [1, 7] was 6.0. The “herbicidal effect rating, ORYSAT” value [1, 8] was 6.5, the “herbicidal effect rating, ECHORC” value [2, 5] was 4.0 and the “herbicidal effect rating, ECHORC” value [2, 6] was 8.0. For the same compound, the “herbicidal effect rating, ECHORC” value [2, 7] was 9.0, the “herbicidal effect rating, ECHORC” value [2, 8] was 9.0 and the “herbicidal effect rating, CYPIR” value (Cyperus iria; [5]) was 2.0. For the same compound, the “herbicidal effect rating, CYPIR” value (Cyperus iria; [6]) was 7.0, the “herbicidal effect rating, CYPIR” value (Cyperus iria; [7]) was 9.0 and the “herbicidal effect rating, CYPIR” value (Cyperus iria; [8]) was 9.0. For the same compound, the “herbicidal effect rating, CYPSE” value [3, 5] was 0.0, the “herbicidal effect rating, CYPSE” value [3, 6] was 0.0 and the “herbicidal effect rating, CYPSE” value [3, 7] was 0.0. The “herbicidal effect rating, CYPSE” value [3, 8] was 0.0, the “herbicidal effect rating, MOOVA” value [4, 5] was 9.0 and the “herbicidal effect rating, MOOVA” value [4, 6] was 9.0. The “herbicidal effect rating, MOOVA” value [4, 7] was 9.0, the “herbicidal effect rating, MOOVA” value [4, 8] was 9.0 and the “herbicidal effect rating, SAGPY” value (Sagittaria pygmaea, L.; [5]) was 0.0. The “herbicidal effect rating, SAGPY” value (Sagittaria pygmaea, L.; [6]) was 0.0, the “herbicidal effect rating, SAGPY” value (Sagittaria pygmaea, L.; [7]) was 1.0 and the “herbicidal effect rating, SAGPY” value (Sagittaria pygmaea, L.; [8]) was 2.0.
For `CCCCCCCOC(=O)c1nsc2ccc(-n3c(=O)cc(C(F)(F)F)n(C)c3=O)cc12` [Example 388, 1,2-Benzisothiazole-3-carboxylic acid, 5-[3,6-dihydro-3-methyl-2,6-dioxo-4-(trifluoromethyl)-1(2H)-pyrimidinyl]-, heptyl ester], the “herbicidal effect rating ORYSAT” value [1, 9] was 3.0, the “herbicidal effect rating ORYSAT” value [1, 10] was 4.0 and the “herbicidal effect rating ORYSAT” value [1, 11] was 4.0. For the same compound, the “herbicidal effect rating ORYSAT” value [1, 12] was 6.0, the “herbicidal effect rating, ECHORC” value [2, 9] was 0.0 and the “herbicidal effect rating, ECHORC” value [2, 10] was 2.0. The “herbicidal effect rating, ECHORC” value [2, 11] was 5.0, the “herbicidal effect rating, ECHORC” value [2, 12] was 6.0 and the “herbicidal effect rating, CYPIR” value (Cyperus iria; [9]) was 4.0. For the same compound, the “herbicidal effect rating, CYPIR” value (Cyperus iria; [10]) was 7.0, the “herbicidal effect rating, CYPIR” value (Cyperus iria; [11]) was 7.0 and the “herbicidal effect rating, CYPIR” value (Cyperus iria; [12]) was 9.0. The “herbicidal effect rating, CYPSE” value [3, 9] was 6.0, the “herbicidal effect rating, CYPSE” value [3, 12] was 6.0 and the “herbicidal effect rating, MOOVA” value [4, 9] was 9.0. For the same compound, the “herbicidal effect rating, MOOVA” value [4, 10] was 9.0, the “herbicidal effect rating, MOOVA” value [4, 11] was 9.0 and the “herbicidal effect rating, MOOVA” value [4, 12] was 9.0. For the same compound, the “herbicidal effect rating, SAGPY” value (Sagittaria pygmaea, L.; [9]) was 3.0, the “herbicidal effect rating, SAGPY” value (Sagittaria pygmaea, L.; [10]) was 4.0 and the “herbicidal effect rating, SAGPY” value (Sagittaria pygmaea, L.; [11]) was 4.0. For the same compound, the “herbicidal effect rating, SAGPY” value (Sagittaria pygmaea, L.; [12]) was 7.0.
With `CC(C)N(C(C)C)S(=O)(=O)NC(=O)COc1ccccc1-c1nsc2ccc(-n3c(=O)cc(C(F)(F)F)n(C)c3=O)cc12` [Example 512, Acetamide, 2-{o-{5-[3,6-dihydro-3-methyl-2,6-dioxo-4-(trifluoromethyl)-1(2H)-pyrimidinyl]-1,2-benzisothiazol-3-yl}phenoxy}-N-(diisopropyl-sulfamoyl)-] the “ORYSAT herbicidal rating (rice tolerance)” value (“ORYSAT herbicidal rating” below) [1, 13] was 0.0, the “ORYSAT herbicidal rating” value [1, 14] was 0.0 and the “ORYSAT herbicidal rating” value [1, 7] was 1.0. For the same compound, the “ORYSAT herbicidal rating” value [1, 8] was 2.0, the ECHORC herbicidal rating [2, 13] was 7.0 and the ECHORC herbicidal rating [2, 14] was 7.0. It also gave an ECHORC herbicidal rating [2, 7] of 9.0, an ECHORC herbicidal rating [2, 8] of 9.0 and a CYPIR herbicidal rating (Cyperus iria; [13]) of 0.0. It also gave a CYPIR herbicidal rating (Cyperus iria; [14]) of 2.0, a CYPIR herbicidal rating (Cyperus iria; [7]) of 5.0 and a CYPIR herbicidal rating (Cyperus iria; [8]) of 5.0. The CYPSE herbicidal rating [3, 13] was 0.0, the CYPSE herbicidal rating [3, 14] was 0.0 and the CYPSE herbicidal rating [3, 7] was 0.0. For the same compound, the CYPSE herbicidal rating [3, 8] was 0.0, the MOOVA herbicidal rating [4, 13] was 9.0 and the MOOVA herbicidal rating [4, 14] was 9.0. It also gave an MOOVA herbicidal rating [4, 7] of 9.0, an MOOVA herbicidal rating [4, 8] of 9.0 and an SAGPY herbicidal rating (Sagittaria pygmaea, L.; [13]) of 0.0. For the same compound, the SAGPY herbicidal rating (Sagittaria pygmaea, L.; [14]) was 0.0, the SAGPY herbicidal rating (Sagittaria pygmaea, L.; [7]) was 2.0 and the SAGPY herbicidal rating (Sagittaria pygmaea, L.; [8]) was 4.0.
For `C=CC(CCCC)OC(=O)COc1ccc(C)cc1-c1nsc2ccc(-n3c(=O)cc(C(F)(F)F)n(C)c3=O)cc12` (stereo not shown) [Example 520, Acetic acid, {{2-{5-[3,6-dihydro-3-methyl-2,6-dioxo-4-(trifluoromethyl)-1(2H)-pyrimidinyl]-1,2-benzisothiazol-3-yl}-p-tolyl}oxy}-, 1-vinylpentyl ester], the “herbicidal effect rating ORYSAT” value [1, 15] was 2.0, the “herbicidal effect rating ORYSAT” value [1, 16] was 3.5 and the “herbicidal effect rating ORYSAT” value [1, 17] was 4.5. The “herbicidal effect rating ORYSAT” value [1, 18] was 3.0, the “herbicidal effect rating, ECHORC” value [2, 15] was 6.5 and the “herbicidal effect rating, ECHORC” value [2, 16] was 8.0. For the same compound, the “herbicidal effect rating, ECHORC” value [2, 17] was 8.5, the “herbicidal effect rating, ECHORC” value [2, 18] was 9.0 and the “herbicidal effect rating, CYPIR” value (Cyperus iria; [15]) was 0.0. The “herbicidal effect rating, CYPIR” value (Cyperus iria; [16]) was 0.0, the “herbicidal effect rating, CYPIR” value (Cyperus iria; [17]) was 2.0 and the “herbicidal effect rating, CYPIR” value (Cyperus iria; [18]) was 4.0. For the same compound, the “herbicidal effect rating, CYPSE” value [3, 15] was 0.0, the “herbicidal effect rating, CYPSE” value [3, 16] was 0.0 and the “herbicidal effect rating, CYPSE” value [3, 17] was 0.0. For the same compound, the “herbicidal effect rating, CYPSE” value [3, 18] was 0.0, the “herbicidal effect rating, MOOVA” value [4, 15] was 9.0 and the “herbicidal effect rating, MOOVA” value [4, 16] was 9.0. The “herbicidal effect rating, MOOVA” value [4, 17] was 9.0, the “herbicidal effect rating, MOOVA” value [4, 18] was 9.0 and the “herbicidal effect rating, SAGPY” value (Sagittaria pygmaea, L.; [15]) was 0.0. The “herbicidal effect rating, SAGPY” value (Sagittaria pygmaea, L.; [16]) was 0.0, the “herbicidal effect rating, SAGPY” value (Sagittaria pygmaea, L.; [17]) was 0.0 and the “herbicidal effect rating, SAGPY” value (Sagittaria pygmaea, L.; [18]) was 0.0.
